# Results published in patent US20230324392A1, “METHODS AND COMPOSITIONS FOR TARGETING CYTOSOLIC DSDNA SIGNALING IN CHROMOSOMALLY UNSTABLE CANCERS” (MEMORIAL SLOAN KETTERING CANCER CENTER, priority 2020, published 2023).
# How the values were obtained:
# [1] = tested on: B16F10, 4T1, and CT26 cells; assay: xCELLigence assay for cell invasion; type: cell-based, mouse; conditions: C176 at 1 μM; all three metastatic cancer cell lines
# Method: xCELLigence assayfor cell invasion: Assessment of the impact of STING inhibition on cell invasion was conducted using the xCELLigence system CIM plates (ACEA Biosciences, San Diego, CA). The upper chamber was coated with 1 mg/ml of growth factor complete Matrigel (#356234, Corning, UK) made up in serum free media (SFM) and incubated at 37° C. for 4 hours to allow polymerisation. A total of 4×10^4 cells in serum-free media were seeded into the upper chamber insert with C176 at 1 μM (Probechem, China) or DMSO control. The lower chamber was filled with complete media. The CIM plates were incubated at 1 hour at 37° C. and 5% C02 for cell attachment. Plates were then monitored using the xCELLigence system. Changes in impedance resulting from cell invasion to the underside of wells were recorded every 15 minutes and monitored for a total of 60 hours.
# [2] = tested on: B16F10, 4T1 or CT26 cells; assay: Cell proliferation assay; type: cell-based, mouse; conditions: C176 at 1 μM; 12-48 hours
# Method: Cell proliferation assay: Cell proliferation was determined by seeding of 5×10^3 B16F10, 4T1 or CT26 cells in 6 well plates in triplicate. Cells were treated with C176 at 1 μM (Probechem, China) or DMSO control. Thereafter cells were counted in triplicate at 12, 24, 36, and 48 hours using trypan blue staining and the EVE™ automated cell counter (NanoEnTek, South Korea).
# [3] = Tolerability of prolonged daily C-176 treatment, survival and necropsy; type: in vivo, mouse
# Text: In B16F10-bearing animals, nearly 30% of the treated group had no evidence of disease at 98 days (FIG. 4A). […] Thus, the therapeutic effect of the STING inhibitors on metastasis is primarily mediated through inhibition of cancer cell-intrinsic STING.
# [4] = tested on: 4T1 cells; assay: Tail vein inoculation of 4T1 cells in BALB/c mice, survival; type: in vivo, mouse; conditions: 4T1, BALB/c, daily IP, vs vehicle
# Method: Animal metastasis studies: Animal experiments were performed in accordance with protocols approved by the MSKCC Institutional Animal Care and Use Committee. […] There was no need to randomize animals. Investigators were not blinded to group allocation. For tail vein injections, 5×10^4 4T1, 2.5×10^4 B16F10, or 10^5 CT26 cells were injected into the tail vein of 6-7-week old BALB/c (4T1 and CT26) or C57BL/6 (B16F10) mice. Metastasis was primarily assessed through overall survival. Overall survival endpoint was met when the mice died or met the criteria for euthanasia under the IACUC protocol. […] Surface lung metastases were assessed at endpoint by direct visual examination after euthanasia at which points lungs were perfused and fixed in 4% paraformaldehyde (4T1 and B16F10 experiments) or stained using India-ink (CT26 experiments). Furthermore, lung metastasis after injection of 4T1 cells was qualitatively assessed using routine hematoxylin and eosin (H&E) staining. […] Primary tumors were surgically excised on day 7 after implantation and metastatic dissemination was assessed by monitoring overall survival or on day 30 through quantification of surface lung metastases upon euthanasia. The length (L) and width (W) of the primary tumors were measured using calipers. Tumor size was calculated according to the following formula: L*W2/2. […]
structure (smiles),measurement,setting,value
O=C(Nc1ccc(I)cc1)c1ccc([N+](=O)[O-])o1 [C-176],invasion,[1],significant reductions
same,cellular proliferation,[2],did not impact cellular proliferation
same,end-of-treatment necropsy,[3]; compared to vehicle-treated animals,no distinct pathologic abnormalities
same,tolerability / clinically evident toxicity,"[3]; prolonged daily treatment, vs vehicle-treated animals",well tolerated and did not lead to any clinically evident toxicity
same,blood counts and blood chemistries,[3]; summary of Tables 9 and 10,within normal limits
same,baseline cortisol levels,[3]; vs vehicle,lower baseline cortisol levels
same,survival of tumor bearing mice,[4],significantly prolonged survival
